This is an account of results in patent US5622947A, “Benzoheterocyclic compounds and vasopressin antagonist and oxytocin antagonist compositions containing a benzoheterocyclic compound” (Otsuka Pharmaceutical Co., Ltd., priority 1992, dated 1997).

pIC50: −log10 of the molar value.

The nature of test [1]: Anti-antiduretic water diuretic activity in vivo. The conditions noted are these: oral, male SD-rats, first 2 hours, vs control group; read-out: ED3 (oral dose required to increase the amount of urine excreted for the first 2 hours). The protocol:
Test-4: Anti-antiduretic water diuretic/activity in vivo
The test compound of the present invention was dissolved in polyethylene glycol 400 or water or suspended in 5% gum arabic aqueous solution, and the mixture was orally administered by force to male SD-rats (body weight: 300 to 400 g) under untreated and unrestrained. After administration the rats were kept in a metabolism cage and the amount of urine spontaneously excreted by the rats was measured at 2 hours' interval, during which the rats could freely be given feed and water.
In the cotrol group, a solvent was administered instead of a test compound solution (or suspension).
The test results are expressed as ED3, which is the oral dose of the test compound which is required to increase the amount of the urine excreted from the rat in the test compound-treated group for the first 2 hours by time based on the amount of urine excreted from the rat for the first 2 hours in the control group.

The subject of test [2] is increase in the diastolic pressure caused by vasopressin. Kind of test: Vasopressin antagonistic activity in vivo. To be noted: Rattus norvegicus; oral, awake male SD-rats, vasopressin 30 mU/kg i.v.; read-out: ID50 (oral dose required to achieve 50% inhibitory effect on increase in diastolic pressure). The protocol: Test-3: Vasopressin antagonistic activity in vivo
In order to test the vasopressin antagonistic activity of the compound of the present invention when admistered orally to rats under awaking, the following experiment was conducted. Cannulas were inserted into the aorta abdominalis and the carotid arteries of male SD-rats (body weight: 300-450 g) under pentobarbital-anesthetization. A few days thereafter, vasopressin (30 mU/kg) was administered intravenously to the rats under awaking with measuring the blood pressure at the cannula inserted into the arorta abdominalis by a piezo-electric transducer. The test compound was dissolved in polyethylene glycol or water, or suspended in 5% gum arabic solution, and orally administered by force to the rats.
The increase in the diastolic pressure of the rat was periodically mesured at 30 minutes' interval after the administration of vasopressin for 8 hours. The rate of inhibitory effect (%) of the test compound on the increase in the diastolic pressure caused by vasopressin (30 mU/kg) was calculated based on the increase in the diastolic pressure when vasopressin (30 mU/kg) was intravenously administered without a test compound.
The test result is expressed as ID50 value, which is the oral dose of the test compound required to achieve the inhibitory effect in the rate of 50% and is shown in Table 158 as follows: […]

The target of test [3] is T1, Oxytocin receptor (uterin muscle membrane preparation) (Rattus norvegicus, UniProt P70536).
T1 construct: was homogenized, which was used as a membrane; from tissue; host or cells: uterine muscle membranes from diethylstilbestrol-treated animals
T1 sequence (P70536 1-388): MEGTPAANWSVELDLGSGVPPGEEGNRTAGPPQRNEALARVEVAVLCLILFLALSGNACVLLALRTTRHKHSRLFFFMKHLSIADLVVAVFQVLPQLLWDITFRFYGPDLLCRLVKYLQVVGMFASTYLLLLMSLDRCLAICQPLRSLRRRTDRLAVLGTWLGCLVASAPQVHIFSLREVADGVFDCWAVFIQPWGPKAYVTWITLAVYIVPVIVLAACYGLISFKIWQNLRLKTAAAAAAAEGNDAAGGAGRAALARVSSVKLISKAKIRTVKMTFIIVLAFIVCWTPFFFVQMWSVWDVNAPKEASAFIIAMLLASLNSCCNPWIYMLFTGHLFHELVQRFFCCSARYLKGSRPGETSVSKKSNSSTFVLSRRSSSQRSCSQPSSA
Kind of test: Oxytocin receptor binding assay. The conditions noted are these: [3H]-oxytocin 10^-9 M, 25°, one hour, pH 8.0, uterin muscle membrane, DES-treated. A digest of the protocol:
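Rat uterine membranes (0.2 mg; DES-primed day before) incubated 1 h at 25° with [3H]-oxytocin (10^-9 M) and compound (10^-9 to 10^-5 M) in 100 mM Tris-HCl pH 8.0, 5 mM MgCl2, 1 mM EDTA, 0.1% BSA. Filter-bound radioactivity counted; nonspecific with 5×10^-6 M oxytocin; IC50 reported.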

In test [4] the target is T2, V2 Recepter (rat kidney plasma membrane preparations) (Rattus norvegicus, UniProt Q00788).
T2 construct: rat kidney plasma membrane preparations; from tissue; host or cells: rat kidney plasma membranes
Kind of test: V2 Recepter binding assay. To be noted: [3H]-Arg-vasopressin 4×10^-10 M, 4° C., pH 8.0, rat kidney plasma membrane. A digest of the protocol: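 Rat kidney plasma membranes incubated with [^3H]-Arg-vasopressin (4×10^-10 M) and test compound (10^-10 to 10^-5 M) for 3 h at 4 °C in 100 mM Tris-HCl pH 8.0 with 5 mM MgCl2, 1 mM EDTA, 0.1% BSA. Bound label by filtration and scintillation counting; nonspecific binding with 10^-6 M vasopressin; IC50 reported.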

Test [5] addresses T3, V1 Recepter (rat liver plasma membrane preparations) (Rattus norvegicus, UniProt P30560).
T3 construct: rat liver plasma membrane preparations; from tissue; host or cells: rat liver plasma membranes
Kind of test: V1 Recepter binding assay. The conditions noted are these: [3H]-Arg-vasopressin 2×10^-10 M, 37° C., 10 minutes, pH 8.0, rat liver plasma membrane. A digest of the protocol: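 Rat liver plasma membranes incubated with [3H]-Arg-vasopressin (2×10^-10 M) and compound (10^-8 to 10^-4 M) for 10 min at 37° C in Tris-HCl pH 8.0 with MgCl2, EDTA, BSA. Bound label separated by glass-fibre filtration, scintillation counted; nonspecific binding with 10^-6 M vasopressin; IC50 reported.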

T3 sequence (P30560 whole entry): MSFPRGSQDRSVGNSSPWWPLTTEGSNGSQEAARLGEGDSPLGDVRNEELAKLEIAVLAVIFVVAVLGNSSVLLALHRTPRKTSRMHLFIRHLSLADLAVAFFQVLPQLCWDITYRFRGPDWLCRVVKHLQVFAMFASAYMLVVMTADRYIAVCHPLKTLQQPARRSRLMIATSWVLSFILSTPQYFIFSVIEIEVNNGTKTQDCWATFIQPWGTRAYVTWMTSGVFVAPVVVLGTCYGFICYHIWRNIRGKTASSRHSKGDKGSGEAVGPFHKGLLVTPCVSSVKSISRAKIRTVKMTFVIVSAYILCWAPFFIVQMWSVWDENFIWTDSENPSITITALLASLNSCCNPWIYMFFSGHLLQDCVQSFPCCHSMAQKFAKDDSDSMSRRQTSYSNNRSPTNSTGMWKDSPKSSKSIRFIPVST
T2 sequence (Q00788 whole entry): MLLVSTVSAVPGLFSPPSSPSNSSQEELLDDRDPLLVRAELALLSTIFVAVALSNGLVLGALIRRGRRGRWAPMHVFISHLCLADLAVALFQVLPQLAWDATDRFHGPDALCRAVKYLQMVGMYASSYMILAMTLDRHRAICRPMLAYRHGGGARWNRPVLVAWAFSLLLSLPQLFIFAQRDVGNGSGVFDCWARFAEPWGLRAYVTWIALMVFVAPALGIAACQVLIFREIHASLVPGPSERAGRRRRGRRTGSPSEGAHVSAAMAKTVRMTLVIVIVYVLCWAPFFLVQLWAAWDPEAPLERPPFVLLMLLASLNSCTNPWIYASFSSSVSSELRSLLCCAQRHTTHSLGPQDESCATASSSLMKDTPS

As for `COc1cc(NC(=O)c2ccccc2C)ccc1C(=O)N1CCCC(CC(=O)N2CCN(C)CC2)c2cc(Cl)ccc21` (centres unmarked) [Example 63, 5-[(4-Methyl-1-piperazinyl)carbonylmethyl]-7-chloro-1-[2-methoxy-4-(2-methylbenzoylamino)benzoyl]-2,3,4,5-tetrahydro-1H-benzoazepine], the ED (3-fold) in test [1] was 3.2 mg/kg. Also, the ED50 in test [2] is 3.4 mg/kg.
In the case of `COc1cc(NC(=O)c2ccccc2Cl)ccc1C(=O)N1CCCC(OCCNS(C)(=O)=O)c2cc(Cl)ccc21` (centres unmarked) [Example 172, 5-(2-Methanesulfonylaminoethoxy)-7-chloro-1-[2-methoxy-4-(2-chlorobenzoylamino)benzoyl]-2,3,4,5-tetrahydro-1H-benzoazepine], the pIC50 in test [3] was 6.88; in test [4], 8.41; in test [5] it was 8.30.
